Experiments:
[1] = system: Normal astrocytes; assay: ATP viability of normal astrocytes treated with increasing concentrations; type: cell-based, mouse; conditions: increasing concentrations (FIG. 7A)
Experimental: (§1) A luminescence-based Celltiter-Glo® assay was performed to measure cell viability, using ATP levels as the readout. In brief, opaque-walled multiwell plates with Mut6 cells in culture medium (25 μl per well, 384-well plates) were prepared. Control wells containing medium without cells were prepared to obtain a value for background luminescence. Test compounds were added to experimental wells, and incubated according to culture protocol. The plate and its contents were incubated at 37° C., 5% […] for 96 hours. An ATP standard curve was generated immediately prior to adding the CellTiter-Glo® Reagent. A volume of CellTiter-Glo® Reagent equal to the volume of cell culture medium present in each well (25 μl of reagent to 25 μl of medium containing cells for a 384-well plate) was added. The contents were mixed for 2 minutes on an orbital shaker to induce cell lysis. The plate was allowed to incubate at room temperature for 10 minutes to stabilize the luminescent signal and luminescence recorded. (e.g. GloMax®, Lumistar, SPECTROstar, PHERAstar FS).
(§2) Normal astrocytes, Mut6 cells and mouse embryonic fibroblasts were treated with increasing concentrations of compound 4C12. […] Normal astrocytes and MEFs were unaffected by compound 4C12.

[2] = system: Srebp2 target genes in Astrocytes; assay: relative mRNA level of cholesterol biosynthesis pathway target genes in astrocytes; type: cell-based, mouse; conditions: vs dmso (FIG. 16)
Text: (§3) FIG. 16 is a bar graph of relative mRNA level for cholesterol biosynthesis pathway target genes Hmgcs, Hmgcr, FPPS, LDLR; and SREBP1c in mouse embryo fibroblasts (left) and astrocytes (right) treated with compound 4C12 or dmso (negative control).

[3] = system: SREBP2; assay: Western blot of SREBP proteins in Mut6 cells; type: cell-based, mouse; conditions: 7 hr, 13 hr and 23 hr
Experimental: (§4) In FIG. 13(a)-(e) Mut6 cells were treated with compound 4C12 for 2, 9, 16, 24, and 48 hr, respectively, and their cholesterol gene profile compared to a DMSO control. […] (f) Western blot. Mut6 cells were treated with vehicle only (−) or with compound 4C12 (+) for 7 hr, 13 hr and 23 hr. Cells were collected, lysed in SDS buffer, subjected to SDS PAGE, and cell proteins transferred to a membrane by a standard protocol.

[4] = system: Mut6 cells; assay: cell-based wash-out time course with ATP assay at 96 hours (FIG. 8); design: species or system mouse
Experimental: FIGS. 8A-B comprising FIG. 8A and FIG. 8B show the identification of molecular changes between 6 hr and 24 hr time points. […] Cells were plated 48 hours before treatment with test compounds Compound 1, Compound 2 and 4C12, and a negative control. Cultures then were treated with the test compound. The media was removed and cells washed twice. Fresh media was added without compound. Data points were 6 hr, 22 hr, 33 hr, 51 hr, 71 hr and continuous. Molecular changes were identified between the 6 hr and 24 hr time points. An ATP assay was performed at 96 hours. On day 2, Cells treated with 4C12 were round-shaped. […] On day 4, 10-20% of the cells were apoptotic. By day 5, 80-90% of the cells were apoptotic.

[5] = system: Mut6 cells; assay: cholesterol and triglyceride level (pg/cell) in treated cells; type: cell-based, mouse
Experimental: (§5) FIG. 12A is a bar graph showing cholesterol (pg/cell), and triglyceride (pg/cell) levels in Mut6 cells treated with compound 4C12 for 24 hours and 48 hours, versus a negative control (vehicle only). […] Mut6 cells were treated with compound 4C12 for 24 hours and then mRNA levels for Hydroxymethylglutaryl-CoA synthase(Hmgcs); 3-hydroxy-3-methylglutaryl-coenzyme A reductase (Hmgcr); acetoacetyl-CoA synthetase (AACS); Delta(24)-sterol reductase (Dhcr24); 7-dehydrocholesterol reductase (Dhcr7), Sterol C5-desaturase (Sc5d); Squalene synthase (SS); and farnesyl pyrophosphate (FPP) synthase (FPPS) were determined.
FIG. 17 compares cholesterol level (pg/cell) (Left) and triglyceride level (pg/cell) (Right) in Mut6 cells and in MEF cells treated with compound 4C12 for 24 hours and 48 hours to a negative control (vehicle).

[6] = system: Mut6 cells (TD-NSC); assay: luminescence-based Celltiter-Glo cell viability assay (ATP levels) on Mut6 tumor derived neuronal stem cells; design: species or system mouse
How it was run: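 Primary tumor-derived neural stem cells from pooled Mut6 (p53/Pten/Nf1 conditional knockout) GBM tumors, serum-free with defined growth factors. Compound exposure 96 h at 37° C., 5% oxygen; viability by CellTiter-Glo ATP luminescence with cell-free background wells, giving IC50 curves.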

[7] = system: mouse embryonic fibroblasts (MEFs); assay: ATP viability of mouse embryonic fibroblasts treated with increasing concentrations; type: cell-based; conditions: increasing concentrations (FIG. 7A)
Experimental: as §1, §2

[8] = system: Srebp2 target genes in MEFs; assay: relative mRNA level of cholesterol biosynthesis pathway target genes in MEFs; type: cell-based, mouse; conditions: vs dmso (FIG. 16)
Text: as §3

[9] = system: cholesterol biosynthesis pathway (Srebp2 target genes); assay: microarray and mRNA levels of cholesterol synthesis genes in Mut6 cells; type: cell-based, mouse
Experimental: Microarray analysis was conducted to identify overrepresented pathways associated with treatment with compound 4C12 for 48 hr.
as §5, §4

[10] = system: Srebp1 target genes; assay: cholesterol gene profile in Mut6 cells, Srebp1 targets; type: cell-based, mouse; conditions: Mut6 cells, 2, 9, 16, 24 and 48 hr vs DMSO
Experimental: as §4

[11] = Mut6 cells, 24 hours and 48 hours

With `CCN1CCCC1CNC(=O)c1ccc(Sc2ccc(F)cc2)c([N+](=O)[O-])c1` (stereo not drawn) [4C12, N-((1-ethylpyrrolidin-2-yl)methyl)-4-((4-fluorophenyl)thio)-3-nitrobenzamide] the “effect on viability of normal astrocytes” value [1] was “unaffected”, the “Srebp2 target genes mRNA in Astrocytes” value [2] was “not decreased” and the “SREBP2 protein (Western blot)” value [3] was “effective to decrease SREBP2 protein”. The cell shape ([4]; day 2) was “round-shaped”, the cell cycle state ([4]; day 3) was “arrested in G2” and the apoptotic cells ([4]; day 4) was 10-20%. The apoptotic cells ([4]; day 5) was 80-90%, the “relative ATP activity versus time” value ([4]; relative to the control (FIG. 8B)) was “reduced ATP activity as a function of time” and the “specificity of cholesterol decrease” value ([5]; Mut6 cells vs MEF cells, 24 and 48 hours (FIG. 17)) was “specific to Mut6 tumor cells”. The “cholesterol (pg/cell)” value [5, 11] was “decreases”, the “triglyceride (pg/cell)” value [5, 11] was “increases” and the EC50 ([6]; Mus musculus, relative ATP activity versus concentration (FIG. 7A), read-out: ED50 against Mut6 cells) was 50 nM. The “compound-induced cell-death with addition of cholesterol” value ([6]; Mut6 cells (FIG. 15(b))) was “inhibits”, the “sensitivity after knock-down of Insig1/Insig2” value ([6]; Mut6 cells (FIG. 15(c))) was “less sensitive” and the “live cells (%)” value ([6]; Mut6 tumor cells viable after 96 hours (FIG. 7C)) was 50%. The “effect on viability of MEFs” value [7] was “unaffected”, the “Srebp2 target genes mRNA in MEFs” value [8] was “not decreased” and the “effect on Srebp2 target genes” value ([9]; Mut6 cells, 2, 9, 16, 24 and 48 hr vs DMSO) was “inhibits Srebp2 target genes”. For the same compound, the “relative mRNA of genes for cholesterol synthesis enzymes” value ([9]; Mut6 cells, 24 hours) was “down-regulated”, the “overrepresented pathways by microarray” value ([9]; treatment for 48 hr) was “deregulates the cholesterol biosynthesis pathway” and the “effect on Srebp1 target genes” value [10] was “not Srebp1 target genes”.

— US11548894B2, “Benzamide or benzamine compounds useful as anticancer agents for the treatment of human cancers” (The Board of Regents of the University of Texas System, priority 2015, dated 2023)
